Test [1] relates to BCL-2 RT template (RNA, G4) UAAUACGACUCACUAUAGGGCAUGCCAAGGGGGAAACACCAGAAUCAAGUGUUCCGCGUGAUUGAAGACACCCCCUCGUCCAAGAAUGCAAAGCACAUCCAGGGGGCCGUGGGGUGGGAGCUGGGGAUAAAAUAGCUGGAUUAUAACUCCUCUUCUUUCUCUCGAGAGGUGCCGUUGGCCCCCGUUGCUUUUCCUCUGGGAAGGAUG
Put plainly: reverse transcriptase stop assay, qPCR. The conditions noted are these: MgCl2 (concentration not stated), 10 µM compound, 100 nM template, 37°C.

The subject of test [2] is NRAS RNA G-quadruplex (SPR) (RNA, G4) UGUGGGAGGGGCGGGUCUGGG
Put plainly: SPR. The conditions noted are these: 100 mM KCl; 10 mM HEPES pH 7.4, 25°C; highest OMT 200 µM.

Test [3] deals with mut 2 (RNA, G4) UGAGGAGGGUGAGGAGG
Put plainly: SPR. The conditions noted are these: 100 mM KCl; 10 mM HEPES pH 7.4, 25°C; printed kd/ka gives 1.01e-2.

The test system of test [4] is RNA G-quadruplex (VEGF), unlabelled (RNA, G4) GGAGGAGGGGGAGGAGG
The test is described as follows: CD melting. The conditions noted are these: 100 mM KCl/NaCl (so in the source); 10 mM Tris pH 7.4; 3:1 OMT/G-quadruplex; 10 µM RNA; Tm 72.7 to 76.3.

The subject of test [5] is BCL-2 RNA G-quadruplex (SPR) (RNA, G4) GGGGGCCGUGGGGUGGGAGCUGGGG
The test is described as follows: SPR. The conditions noted are these: 100 mM KCl; 10 mM HEPES pH 7.4, 25°C; highest OMT 200 µM.

For test [6], the system named is mut 1 (RNA, G4) GGAUGAGUGGGAGGAGG
Put plainly: SPR. The settings on record: 100 mM KCl; 10 mM HEPES pH 7.4, 25°C; printed kd/ka gives 3.9e-3.

The subject of test [7] is mut 3 (RNA, G4) GGAGGAGGGUGAGUAGG
The test is described as follows: SPR. The settings on record: 100 mM KCl; 10 mM HEPES pH 7.4, 25°C; highest OMT 200 µM.

Test [8] has as its system mut 4 (RNA, G4) UGAGGAGGGGGAGGAUG
Put plainly: SPR. The settings on record: 100 mM KCl; 10 mM HEPES pH 7.4, 25°C; highest OMT 200 µM.

Test [9] deals with DNA double strand (DNA, duplex) GCGCGCGCGCGCGCGCGCGCGCGC
Put plainly: UV melting. The settings on record: 100 mM KCl/NaCl (so in the source); 10 mM Tris pH 7.4.

The test system of test [10] is RNA G-quadruplex (VEGF), unlabelled (RNA, G4) GGAGGAGGGGGAGGAGG
Put plainly: ESI-MS. The settings on record: 100 mM trimethylammonium acetate; 50% methanol; 10 µM RNA, 30 µM OMT.

The source of these data is paper PMC8630693 (2021).

Compound `C[n+]1ccc(-c2c3nc(c(-c4cc[n+](C)cc4)c4ccc([nH]4)c(-c4cc[n+](C)cc4)c4nc(c(-c5cc[n+](C)cc5)c5ccc2[nH]5)C=C4)C=C3)cc1` yielded a ΔCt in test [1] (not a binding constant) of over 2.

As for `O=C1CCC[C@@H]2[C@H]3CCC[N+]4([O-])CCC[C@@H](CN12)[C@@H]34` (some centres unmarked), the binding result in [2], in [5], in test [7], in [8], in [1] and in [9] was “no” in each case. Moreover, the binding entry in test [10] was “yes”. Also, the dissociation constant (KD) was 101 µM in test [3] and 39 µM in test [6]. Besides, the ΔTm in test [4] was determined as 3.6 °C.
